Experimental data from the NIST ThermoML archive (doi:10.1016/j.jct.2012.05.030).

Columns and labels:
[1] = refractive index (other wavelength) (dimensionless); conditions: 100 kPa, Liquid, Wavelength=632.8 nm, Standard Abbe refractometry
[2] = refractive index (other wavelength) (dimensionless); xn = mol fraction of the nth substance listed; conditions: 100 kPa, Liquid, Wavelength=632.8 nm, Standard Abbe refractometry

N#Cc1ccccc1 [benzonitrile]
[1]
Conditions	refractive index
293.37 K	1.5252
293.99 K	1.5249
294.53 K	1.5247
295.09 K	1.5243
295.66 K	1.5241
296.11 K	1.5238
296.8 K	1.5236
297.16 K	1.5233
297.91 K	1.523
298.2 K	1.5228
298.8 K	1.5225
298.83 K	1.5226
299.26 K	1.5223
300.06 K	1.5219
300.12 K	1.5219
300.31 K	1.5218
301.13 K	1.5214
301.23 K	1.5214
301.35 K	1.5213
302.26 K	1.5209
302.31 K	1.5209
302.42 K	1.5208
302.65 K	1.5207
303.41 K	1.5203
304.49 K	1.5198
305.64 K	1.5192
306.89 K	1.5186
307.55 K	1.5183
307.88 K	1.5181

N#Cc1ccccc1 [benzonitrile] + CCCCCCCCCCCCCCC
[2], x1 = 1
Conditions	refractive index
293.37 K	1.5252
293.99 K	1.5249
294.53 K	1.5247
295.09 K	1.5243
295.66 K	1.5241
296.11 K	1.5238
296.8 K	1.5236
297.16 K	1.5233
297.91 K	1.523
298.2 K	1.5228
298.8 K	1.5225
298.83 K	1.5226
299.26 K	1.5223
300.06 K	1.5219
300.12 K	1.5219
300.31 K	1.5218
301.13 K	1.5214
301.23 K	1.5214
301.35 K	1.5213
302.26 K	1.5209
302.31 K	1.5209
302.42 K	1.5208
302.65 K	1.5207
303.41 K	1.5203
304.49 K	1.5198
305.64 K	1.5192
306.89 K	1.5186
307.88 K	1.5181

N#Cc1ccccc1 [benzonitrile] + CCCCCCCCCCCCCCCCC
[2], x1 = 1
Conditions	refractive index
293.37 K	1.5252
293.99 K	1.5249
294.53 K	1.5247
295.09 K	1.5243
295.66 K	1.5241
296.11 K	1.5238
296.8 K	1.5236
297.16 K	1.5233
297.91 K	1.523
298.2 K	1.5228
298.8 K	1.5225
298.83 K	1.5226
299.26 K	1.5223
300.06 K	1.5219
300.12 K	1.5219
300.31 K	1.5218
301.13 K	1.5214
301.23 K	1.5214
301.35 K	1.5213
302.26 K	1.5209
302.31 K	1.5209
302.42 K	1.5208
303.41 K	1.5203
304.49 K	1.5198
305.64 K	1.5192
306.89 K	1.5186
307.55 K	1.5183
307.88 K	1.5181

CCCCCCCCCCCCCCCCC [heptadecane]
[1]
Conditions	refractive index
298.76 K	1.4331
299.97 K	1.4326
301.18 K	1.4321
302.15 K	1.4317
303.27 K	1.4313
304.24 K	1.4309
305.29 K	1.4304
306.32 K	1.43
307.42 K	1.4296
307.55 K	1.4296

CCCCCCCCCCCCCCCCC [heptadecane] + N#Cc1ccccc1
[2]
Conditions	refractive index
298.76 K, x2 = 0	1.4331
299.97 K, x2 = 0	1.4326
301.18 K, x2 = 0	1.4321
302.15 K, x2 = 0	1.4317
303.27 K, x2 = 0	1.4313
304.24 K, x2 = 0	1.4309
305.29 K, x2 = 0	1.4304
306.32 K, x2 = 0	1.43
307.42 K, x2 = 0	1.4296
307.55 K, x2 = 0	1.4296
307.55 K, x2 = 0.1039	1.4325
307.55 K, x2 = 0.2138	1.4362
307.55 K, x2 = 0.3266	1.4411
307.55 K, x2 = 0.4187	1.4458
307.55 K, x2 = 0.5127	1.4515
307.55 K, x2 = 0.5975	1.4578
307.55 K, x2 = 0.7127	1.4688
307.55 K, x2 = 0.8046	1.4802
307.55 K, x2 = 0.9266	1.501

CCCCCCCCCCCCCCC [pentadecane]
[1]
Conditions	refractive index
293.37 K	1.4305
294.36 K	1.4301
295.64 K	1.4296
296.92 K	1.429
297.91 K	1.4286
299.12 K	1.4281
300.26 K	1.4276
301.51 K	1.4271
302.46 K	1.4267
302.65 K	1.4266

CCCCCCCCCCCCCCC [pentadecane] + N#Cc1ccccc1
[2]
Conditions	refractive index
293.37 K, x2 = 0	1.4305
294.36 K, x2 = 0	1.4301
295.64 K, x2 = 0	1.4296
296.92 K, x2 = 0	1.429
297.91 K, x2 = 0	1.4286
299.12 K, x2 = 0	1.4281
300.26 K, x2 = 0	1.4276
301.51 K, x2 = 0	1.4271
302.46 K, x2 = 0	1.4267
302.65 K, x2 = 0	1.4266
302.65 K, x2 = 0.1097	1.4304
302.65 K, x2 = 0.22	1.435
302.65 K, x2 = 0.3283	1.4404
302.65 K, x2 = 0.4141	1.4454
302.65 K, x2 = 0.4959	1.451
302.65 K, x2 = 0.5849	1.4582
302.65 K, x2 = 0.7005	1.4698
302.65 K, x2 = 0.8052	1.4832
302.65 K, x2 = 0.8983	1.4986
